# BindingDB's records for PubMed 11160654 (Kitasato University, 2001)
# Molecular target: Glutamate receptor 3 (Rattus norvegicus, UniProt P19492)
# Sequence (P19492 whole entry): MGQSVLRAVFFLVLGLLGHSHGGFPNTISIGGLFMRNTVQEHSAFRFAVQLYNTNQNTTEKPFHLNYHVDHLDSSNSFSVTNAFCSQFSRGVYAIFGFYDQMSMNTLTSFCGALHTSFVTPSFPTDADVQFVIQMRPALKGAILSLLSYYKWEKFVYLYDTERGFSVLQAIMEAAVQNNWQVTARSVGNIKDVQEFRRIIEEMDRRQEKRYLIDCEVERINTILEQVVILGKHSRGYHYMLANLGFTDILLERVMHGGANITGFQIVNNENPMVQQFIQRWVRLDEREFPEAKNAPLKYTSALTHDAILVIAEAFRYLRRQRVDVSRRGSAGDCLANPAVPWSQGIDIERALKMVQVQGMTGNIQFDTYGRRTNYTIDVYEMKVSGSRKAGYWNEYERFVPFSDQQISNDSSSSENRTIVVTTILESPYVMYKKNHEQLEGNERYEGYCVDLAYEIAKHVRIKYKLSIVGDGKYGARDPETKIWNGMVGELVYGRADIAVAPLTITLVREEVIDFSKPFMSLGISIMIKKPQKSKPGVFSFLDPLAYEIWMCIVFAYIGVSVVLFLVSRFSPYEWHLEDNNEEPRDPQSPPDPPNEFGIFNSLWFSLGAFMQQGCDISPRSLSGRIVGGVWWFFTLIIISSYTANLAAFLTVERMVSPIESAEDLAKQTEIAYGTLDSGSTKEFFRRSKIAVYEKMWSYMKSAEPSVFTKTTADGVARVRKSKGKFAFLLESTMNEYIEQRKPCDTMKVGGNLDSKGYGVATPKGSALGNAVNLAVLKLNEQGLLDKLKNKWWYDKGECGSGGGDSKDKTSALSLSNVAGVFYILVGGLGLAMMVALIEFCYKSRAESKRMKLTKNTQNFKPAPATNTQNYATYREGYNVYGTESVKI
smiles,measurement,value
CN[C@H](CC(=O)O)C(=O)O [NMDA],Ki,3.9 µM
